According to patent US20230374034A1, “NOVEL BICYCLIC COMPOUNDS” (PRISM BIOLAB CO., LTD., priority 2020, published 2023):

test system: NICD (Notch intracellular domain) CSL-bla reporter in HeLa cells; assay: Notch assay (CellSensor T-REx NICD CSL-bla HeLa beta-lactamase reporter; Method 1 / Method 2); format: cell-based; details: Homo sapiens, 10 μM compound, Method 1 (10× compound prepared in assay medium, added to plated cells), read-out: inhibiton (%) at 10 μM
Excerpt: We used the CellSensor T-REx™ NICD CSL-bla HeLa cell line, which was engineered by lentiviral transduction of HeLa cells with a Notch response element driving beta-lactamase reporter gene expression (CSL-bla) along with DOX (doxycycline)-inducible NICD (Notch intracellular domain) constructs. Addition of DOX to these cells allows for regulated NICD transcription factor expression and subsequent beta-lactamase expression.
Specifically, the following protocol was used.
NOTCH ASSAY PROTOCOL (Method 2)
• 1. Add 40 nL/well of working concentration of 1000× compound to 384-well assay plate with Echo. • 2. Plate Cells: 35 μl/well of HeLa/T-REx™ NICD CSL-bla cells at 10^3 cells/well complete medium into 384-well plate. • 3. Add 5 μl 8× Doxycycline in Assay Medium to the treated wells, and 5 μl Assay Medium to the Untreated and cell free control wells. • 4. Incubate the assay plate in a humidified 37° C./5% CO2 incubator for 16-20 hours. • 5. Preparation of 6× LiveBLAzer™-FRET B/G Substrate (CCF4-AM) Mixture according to the manual and cell loading should be done in the absence of direct strong lighting. • 6. Remove assay plate from the humidified 37° C./5% CO2 incubator. Add 8 μl of 6× Substrate Mixture from Step 5 to each well. Cover the plate to protect it from light and evaporation. Incubate at room temperature for 4 hours. • 7. Reading an Assay Plate using the following filter selections:
• 8. Data analysis: Use the assay plate layout to identify the location of the Cell-free wells. These control wells are used for background subtraction. Determine the average emission from the Cell-free wells at both 460 nm (Average Blue Background) and 530 nm(Average Green Background). Subtract the Average Blue Background (data collected at 460 nm) from all of the blue emission data. Subtract the Average Green background (data collected at 530 nm) from all of the green emission data. Calculate the Blue/Green Emission Ratio for each well, by dividing the background-subtracted blue emission values by the background-subtracted green emission values.
Instead of Step 1 to Step 3, the following Step a to Step d can also be performed. The subsequent steps are the same as Method 2, after Step 4 (Method 1). • a. Plate Cells: 32 μL/well of HeLa/T-REx™ NICD CSL-bla cells at 10^3 cells/well complete medium into 384-well plate. • b. Prepare 10× compounds in assay medium. • c. Add 4 μL compounds or 1% DMSO in assay medium to the cells. • d. Add 4 μL 10×Doxycycline in Assay Medium to the treated wells, and 4 μL Assay Medium to the Untreated and cell free control wells.
The results are shown in Table 13 (Table 13-1 to Table 13-2).

Structure (SMILES) | inhibition at 10 µM [%]
CC(C)COC(=O)N1O[C@H](C(C)C)C(=O)N2C1CN(Cc1cccc3ccccc13)C(=O)[C@@H]2Cc1ccc(O)cc1 (stereo partly drawn) [Compound I-1, (3R,6S)-isobutyl 6-(4-hydroxybenzyl)-3-isopropyl-8-(naphthalen-1-ylmethyl)-4,7-dioxohexahydropyrazino[2,1-c][1,2,4]oxadiazine-1(6H)-carboxylate] | 55.9
CCCCCCOC(=O)N1O[C@H](CCCC)C(=O)N2C1CN(CCC(C)C)C(=O)[C@@H]2Cc1ccc(O)cc1 (stereo partly drawn) [Compound I-2, (3R,6S)-hexyl 3-butyl-6-(4-hydroxybenzyl)-8-isopentyl-4,7-dioxohexahydropyrazino[2,1-c][1,2,4]oxadiazine-1(6H)-carboxylate] | 53.5
CCCCCCOC(=O)N1O[C@@H](C(C)C)C(=O)N2C1CN(Cc1ccccc1)C(=O)[C@@H]2Cc1ccc(O)cc1 (stereo partly drawn) [Compound I-3, (3S,6S)-hexyl 8-benzyl-6-(4-hydroxybenzyl)-3-isopropyl-4,7-dioxohexahydropyrazino[2,1-c][1,2,4]oxadiazine-1(6H)-carboxylate] | 53.6
CCCCCCOC(=O)N1O[C@@H](CCCC)C(=O)N2C1CN(Cc1ccccc1)C(=O)[C@@H]2Cc1ccc(O)cc1 (stereo partly drawn) [Compound I-4, (3S,6S)-hexyl 8-benzyl-3-butyl-6-(4-hydroxybenzyl)-4,7-dioxohexahydropyrazino[2,1-c][1,2,4]oxadiazine-1(6H)-carboxylate] | 57.1
CCCCCCOC(=O)N1O[C@@H](CC(C)C)C(=O)N2C1CN(Cc1ccccc1)C(=O)[C@@H]2Cc1ccc(O)cc1 (stereo partly drawn) [Compound I-5, (3S,6S)-hexyl 8-benzyl-6-(4-hydroxybenzyl)-3-isobutyl-4,7-dioxohexahydropyrazino[2,1-c][1,2,4]oxadiazine-1(6H)-carboxylate] | 66.1
CCCCCCOC(=O)N1O[C@@H](Cc2ccccc2)C(=O)N2C1CN(Cc1ccccc1)C(=O)[C@@H]2Cc1ccc(O)cc1 (stereo partly drawn) [Compound I-6, (35,6S)-hexyl 3,8-dibenzyl-6-(4-hydroxybenzyl)-4,7-dioxohexahydropyrazino[2,1-c][1,2,4]oxadiazine-1(6H)-carboxylate] | 62.1
CC(C)[C@H]1ON(C(=O)OCC2CCCCC2)C2CN(Cc3ccccc3)C(=O)[C@H](Cc3ccc(O)cc3)N2C1=O (stereo partly drawn) [Compound I-7, (3R,6S)-cyclohexylmethyl 8-benzyl-6-(4-hydroxybenzyl)-3-isopropyl-4,7-dioxohexahydropyrazino[2,1-c][1,2,4]oxadiazine-1(6H)-carboxylate] | 55.5
CCCC[C@@H]1ON(C(=O)OCc2ccccc2)C2CN(CCCC)C(=O)[C@H](Cc3ccc(O)cc3)N2C1=O (stereo partly drawn) [Compound I-8, (3S,6S)-benzyl 3,8-dibutyl-6-(4-hydroxybenzyl)-4,7-dioxohexahydropyrazino[2,1-c][1,2,4]oxadiazine-1(6H)-carboxylate] | 60.2
CC(C)CCN1CC2N(C(=O)OCc3cccc4ccccc34)O[C@H](C(C)C)C(=O)N2[C@@H](Cc2ccc(O)cc2)C1=O (stereo partly drawn) [Compound I-9, (3R,6S)-naphthalen-1-ylmethyl 6-(4-hydroxybenzyl)-8-isopentyl-3-isopropyl-4,7-dioxohexahydropyrazino[2,1-c][1,2,4]oxadiazine-1(6H)-carboxylate] | 70
CCCC[C@H]1ON(C(=O)OCc2cccc3ccccc23)C2CN(CC3CCCCC3)C(=O)[C@H](Cc3ccc(O)cc3)N2C1=O (stereo partly drawn) [Compound I-10, (3R,6S)-naphthalen-1-ylmethyl 3-butyl-8-(cyclohexylmethyl)-6-(4-hydroxybenzyl)-4,7-dioxohexahydropyrazino[2,1-c][1,2,4]oxadiazine-1(6H)-carboxylate] | 57.2
CCCC[C@H]1ON(C(=O)OCc2cccc3ccccc23)C2CN(Cc3ccccc3)C(=O)[C@H](Cc3ccc(O)cc3)N2C1=O (stereo partly drawn) [Compound I-11, (3R,6S)-naphthalen-1-ylmethyl 8-benzyl-3-butyl-6-(4-hydroxybenzyl)-4,7-dioxohexahydropyrazino[2,1-c][1,2,4]oxadiazine-1(6H)-carboxylate] | 51.7
CCCC[C@H]1ON(C(=O)OCc2cccc3ccccc23)C2CN(C(C)C)C(=O)[C@H](Cc3ccc(O)cc3)N2C1=O (stereo partly drawn) [Compound I-12, (3R,6S)-naphthalen-1-ylmethyl 3-butyl-6-(4-hydroxybenzyl)-8-isopropyl-4,7-dioxohexahydropyrazino[2,1-c][1,2,4]oxadiazine-1(6H)-carboxylate] | 71
CC(C)C[C@H]1ON(C(=O)OCc2cccc3ccccc23)C2CN(CCC(N)=O)C(=O)[C@H](CC3CCCCC3)N2C1=O (stereo partly drawn) [Compound I-13, (3R,6S)-naphthalen-1-ylmethyl 8-(3-amino-3-oxopropyl)-6-(cyclohexylmethyl)-3-isobutyl-4,7-dioxohexahydropyrazino[2,1-c][1,2,4]oxadiazine-1(6H)-carboxylate] | 55.5
CC(C)C[C@H]1ON(C(=O)OCc2cccc3ccccc23)C2CN(C(C)C)C(=O)[C@H](Cc3ccc(O)cc3)N2C1=O (stereo partly drawn) [Compound I-14, (3R,6S)-naphthalen-1-ylmethyl 6-(4-hydroxybenzyl)-3-isobutyl-8-isopropyl-4,7-dioxohexahydropyrazino[2,1-c][1,2,4]oxadiazine-1(6H)-carboxylate] | 64.8
CC(C)CCN1CC2N(C(=O)OCc3cccc4ccccc34)O[C@H](Cc3ccccc3)C(=O)N2[C@@H](C)C1=O (stereo partly drawn) [Compound I-15, (3R,6S)-naphthalen-1-ylmethyl 3-benzyl-8-isopentyl-6-methyl-4,7-dioxohexahydropyrazino[2,1-c][1,2,4]oxadiazine-1(6H)-carboxylate] | 52.6
CC(C)CCN1CC2N(C(=O)OCc3cccc4ccccc34)O[C@H](Cc3ccccc3)C(=O)N2[C@@H](Cc2ccc(O)cc2)C1=O (stereo partly drawn) [Compound I-16, (3R,6S)-naphthalen-1-ylmethyl 3-benzyl-6-(4-hydroxybenzyl)-8-isopentyl-4,7-dioxohexahydropyrazino[2,1-c][1,2,4]oxadiazine-1(6H)-carboxylate] | 79.8
CC(C)N1CC2N(C(=O)OCc3cccc4ccccc34)O[C@H](Cc3ccccc3)C(=O)N2[C@@H](Cc2ccc(O)cc2)C1=O (stereo partly drawn) [Compound I-17, (3R,6S)-naphthalen-1-ylmethyl 3-benzyl-6-(4-hydroxybenzyl)-8-isopropyl-4,7-dioxohexahydropyrazino[2,1-c][1,2,4]oxadiazine-1(6H)-carboxylate] | 88
CC(C)[C@H]1C(=O)N(CC2CCCCC2)CC2N(C(=O)OCc3cccc4ccccc34)O[C@H](CC(N)=O)C(=O)N21 (stereo partly drawn) [Compound I-18, (3R,6S)-naphthalen-1-ylmethyl 3-(2-amino-2-oxoethyl)-8-(cyclohexylmethyl)-6-isopropyl-4,7-dioxohexahydropyrazino[2,1-c][1,2,4]oxadiazine-1(6H)-carboxylate] | 54
CC(C)[C@H]1C(=O)N(Cc2cccc3ccccc23)CC2N(C(=O)OCc3cccc4ccccc34)O[C@H](CC(N)=O)C(=O)N21 (stereo partly drawn) [Compound I-19, (3R,6S)-naphthalen-1-ylmethyl 3-(2-amino-2-oxoethyl)-6-isopropyl-8-(naphthalen-1-ylmethyl)-4,7-dioxohexahydropyrazino[2,1-c][1,2,4]oxadiazine-1(6H)-carboxylate] | 67.3
